# Source: patent US9227935B2, “Piperidine/piperazine derivatives” (Janssen Pharmaceutica N.V., priority 2007, dated 2016)
# Biological target: T1, human DGAT1 (Homo sapiens, UniProt O75907)
# T1 construct: FLAG (N); made in house; host or cells: SF9 insect cells (baculovirus, pFastBac); total cell membranes used as the enzyme source
# T1 sequence (O75907 1-488): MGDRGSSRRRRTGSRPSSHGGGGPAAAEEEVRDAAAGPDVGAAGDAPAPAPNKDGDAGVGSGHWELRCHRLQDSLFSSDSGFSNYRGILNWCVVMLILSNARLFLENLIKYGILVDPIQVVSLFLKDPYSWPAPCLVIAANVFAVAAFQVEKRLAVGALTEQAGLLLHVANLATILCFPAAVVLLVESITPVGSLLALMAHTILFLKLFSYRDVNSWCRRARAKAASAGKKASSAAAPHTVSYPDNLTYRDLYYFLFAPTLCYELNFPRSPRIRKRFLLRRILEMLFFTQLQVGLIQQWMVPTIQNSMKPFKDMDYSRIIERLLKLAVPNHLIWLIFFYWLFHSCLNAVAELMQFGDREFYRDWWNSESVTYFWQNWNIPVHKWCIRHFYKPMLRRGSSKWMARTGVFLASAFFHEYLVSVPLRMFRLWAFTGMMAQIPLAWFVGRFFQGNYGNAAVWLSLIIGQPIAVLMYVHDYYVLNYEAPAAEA
# Assay: DGAT1 FlashPlate inhibition assay with DGAT1 membrane preparations
# Format: biochemical
# Conditions: IC50 values expressed in M; pIC50 = -logIC50; inhibition of DGAT1 activity
# Source text: The inhibiting activity of the present compounds on DGAT1 activity was screened in a single well procedure assay using DGAT1 comprising membrane preparations and DGAT1 substrate comprising micelles and determining formed radio-active triacylglycerol coming in close proximity of a flashplate surface by radioluminescence.
# Said assay is described in full detail in WO2006/067071, the content of which is incorporated herein by reference.
# By DGAT1 activity is meant the transfer of coenzyme A activated fatty acids to the 3-position of 1,2-diacylglycerols, thus forming a triglyceride molecule, by enzyme DGAT1.
# human DGAT1 (NM012079.2) was cloned into the pFastBac vector, containing translation start, a FLAG-tag at the N-terminus as described in literature and a viral Kozak sequence (AAX) preceding the ATG to improve expression in insect cells. Expression was done as described in literature (Cases, S., Smith, S. J., Zheng, Y., Myers H. M., Lear, S. R., Sande, E., Novak, S., Collins, C., Welch, C. B., Lusis, A. J., Erickson, S. K. and Farese, R. V. (1998) Proc. Natl. Acad. Sci. USA 95, 13018-13023.) using SF9 cells.
# 72 h transfected SF9 cells were collected by centrifugation (13000 rpm-15 min-4° C.) and lysed in 2×500 ml lysis buffer (0.1M Sucrose, 50 mM KCl, 40 mM KH2PO4, 30 mM EDTA pH 7.2. Cells were homogenized by cell disruptor. After centrifugation 1380 rpm-15 min-4° C. (SN discarded), pellet was resuspended in 500 ml lysis buffer and total cell membranes collected by ultracentrifugation at 34000 rpm (100 000 g) for 60 min (4° C.). The collected membranes were resuspended in lysis buffer, divided in aliquots and stored with 10% glycerol at −80° C. until use.
# Add 1 ml dioleoyl-sn-glycerol (10 mg/ml) to 10 ml of L-α-phosphatidylcholine (1 mg/ml) and 10 ml of L-α-phosphatidyl-L-serine (1 mg/ml) in a thick glass recipient. Evaporate under nitrogen and put on ice for 15 minutes. Reconstitute in 10 ml Tris/HCl (10 mM, pH 7.4) by sonication on ice. The sonification process consists of sonification cycles of 10 seconds in the sonification bath followed by 10 seconds cool down on ice and repeating this sonification cycle till a homogeneous solution is obtained (takes about 15 minutes). The thus obtained micelles are stored at −20° C. till later use and contain DAG at a final concentration of 1.61 mM.
# • 50 mM Tris-HCl (pH 7.4), 150 mM MgCl2, 1 mM EDTA, 0.2% BSA. b) N-ethylmaleimide, 5M • Dissolve 5 g into a final volume of 8 ml DMSO 100% and store at −20° C. in aliquots till later use. c) Substrate mix (for 1 384 well plate=3840 μl) • 612 μl micelles stock (51 μM final) • 16.6 μl oleoylCoA 9.7 mM • 23 μl [^3H]-oleoylCoA (49 Ci/mmol, 500 μCi/ml) • 3188.4 μl Tris pH 7.4, 10 mM d) Enzyme mix (for 1 384 well plate=3520 μl) (5 μg/ml) • Add 11.73 μl of DGAT membrane stock (1500 μg/ml stock) to 3508 μl assay buffer. e) Stop mix (for 1 384 well plate=7.68 ml) (250 mM) • Add 384 μl of N-ethylmaleimide (5M) to 3.456 ml DMSO 100%, and further dilute 3.84 ml of said solution with 3.84 ml DMSO 10%. Method
# DGAT activity in membrane preparations was assayed in 50 mM Tris-HCl (pH 7.4), 150 mM MgCl2, 1 mM EDTA and 0.2% BSA, containing 50 μM DAG, […] PC/PS and 8.4 μM [^3H]-oleoylCoA (at a specific activity of 30 nCi/well) in a final volume of 50 μl in 384-well format using the red shifted Basic Image FlashPlate™ (Perkin Elmer Cat. No. SMP400).
# In detail, 10 μl enzyme mix and 10 μl substrate mix were added to 30 μl of assay buffer, optionally in the presence of 1 μl DMSO (blank and controls) or 1 μl of the compound to be tested. This reaction mixture was incubated for 120 minutes at 37° C. and the enzymatic reaction stopped by adding 20 μl of the stop mix. The plates were sealed and the vesicles allowed to settle overnight at room temperature. Plates were centrifuged for 5 minutes at 1500 rpm and measured in Leadseeker. […]
row,SMILES,IC50 [nM]
1,CC(C)(C)OC(=O)N1CC(C(=O)Nc2ccc(C3CCN(C(=O)Nc4c(Cl)cccc4Cl)CC3)cc2)C1 [Compound 1],8.13
2,Cc1nc(C(=O)Nc2ccc(N3CCN(C(=O)Nc4c(Cl)cccc4Cl)CC3)cc2)c(-c2ccc(C(C)C)cc2)s1 [Compound 2],112
3,Cc1nc(C(=O)Nc2ccc(C3CCN(C(=O)Nc4c(Cl)cccc4Cl)CC3)cc2)c(-c2ccc(C(C)C)cc2)s1 [Compound 3],1170
4,O=C(Nc1ccc(N2CCN(C(=O)Nc3c(Cl)cccc3Cl)CC2)cc1)c1ccccc1-c1ccco1 [Compound 4],24.5
5,O=C(Nc1ccc(N2CCN(C(=O)NCC3CCCCC3)CC2)cc1)c1ccccc1-c1ccc(C(F)(F)F)cc1 [Compound 5],7590
6,O=C(Nc1ccc(N2CCN(C(=O)c3c(Cl)cccc3Cl)CC2)cc1)c1ccccc1-c1ccc(C(F)(F)F)cc1 [Compound 6],9120
7,Cc1ccccc1NC(=O)N1CCC(c2ccc(NC(=O)c3ccccc3-c3ccc(C(F)(F)F)cc3)cc2)CC1 [Compound 7],3470
8,Nc1ccccc1C(=O)Nc1ccc(C2CCN(C(=O)Nc3c(Cl)cccc3Cl)CC2)cc1 [Compound 10],324
9,CN1CC(C(=O)Nc2ccc(N3CCN(C(=O)Nc4c(Cl)cccc4Cl)CC3)cc2)CC1=O (stereo not shown) [Compound 11],1120
10,O=C(Nc1ccc(N2CCN(C(=O)Nc3c(Cl)cccc3Cl)CC2)cc1)c1cccc(N2CCCC2)c1 [Compound 12],1.35
11,O=C(Nc1ccc(N2CCN(C(=O)Nc3c(Cl)cccc3Cl)CC2)cc1)c1cccc(N2CCCC2=O)c1 [Compound 13],11
12,O=C(Nc1ccc(N2CCN(C(=O)Nc3c(Cl)cccc3Cl)CC2)cc1)c1cccc(-c2ccco2)c1 [Compound 14],0.977
13,O=C(Nc1ccc(N2CCN(C(=O)Nc3c(Cl)cccc3Cl)CC2)cc1)c1ccc(-c2cnco2)cc1 [Compound 15],12.9
14,O=C(Nc1ccc(N2CCN(C(=O)Nc3c(Cl)cccc3Cl)CC2)cc1)c1cccc(-c2cnco2)c1 [Compound 16],12
15,Cc1nc(-c2cccc(C(=O)Nc3ccc(N4CCN(C(=O)Nc5c(Cl)cccc5Cl)CC4)cc3)c2)cs1 [Compound 17],2.09
16,CCc1nc(C)c(-c2ccccc2C(=O)Nc2ccc(N3CCN(C(=O)Nc4c(Cl)cccc4Cl)CC3)cc2)s1 [Compound 18],40.7
17,Cc1ccc(C)n1-c1ccc(C(=O)Nc2ccc(N3CCN(C(=O)Nc4c(Cl)cccc4Cl)CC3)cc2)cc1 [Compound 19],145
18,Cc1ccc(C)n1-c1cccc(C(=O)Nc2ccc(N3CCN(C(=O)Nc4c(Cl)cccc4Cl)CC3)cc2)c1 [Compound 20],30.9
19,O=C(Nc1ccc(N2CCN(C(=O)Nc3c(Cl)cccc3Cl)CC2)cc1)c1ccc(-n2cccn2)cc1 [Compound 21],8.91
20,O=C(Nc1ccc(N2CCN(C(=O)Nc3c(Cl)cccc3Cl)CC2)cc1)c1ccccc1-n1ccnc1 [Compound 22],1380
21,O=C(Nc1ccc(N2CCN(C(=O)Nc3c(Cl)cccc3Cl)CC2)cc1)c1cccc(-n2ccnc2)c1 [Compound 23],33.1
22,O=C(Nc1ccc(N2CCN(C(=O)Nc3c(Cl)cccc3Cl)CC2)cc1)c1ccc(-n2ccnc2)cc1 [Compound 24],347

row,SMILES,IC50 [nM]
1,O=C(Nc1ccc(N2CCN(C(=O)Nc3c(Cl)cccc3Cl)CC2)cc1)c1ccc(-c2cc[nH]n2)cc1 [Compound 25],70.8
2,Cc1n[nH]c(C)c1-c1ccccc1C(=O)Nc1ccc(N2CCN(C(=O)Nc3c(Cl)cccc3Cl)CC2)cc1 [Compound 26],398
3,Cc1cc(C)n(-c2ccc(C(=O)Nc3ccc(N4CCN(C(=O)Nc5c(Cl)cccc5Cl)CC4)cc3)cc2)n1 [Compound 27],3.89
4,Cc1cc(C)n(-c2cccc(C(=O)Nc3ccc(N4CCN(C(=O)Nc5c(Cl)cccc5Cl)CC4)cc3)c2)n1 [Compound 28],5.01
5,O=C(Nc1ccc(N2CCN(C(=O)Nc3c(Cl)cccc3Cl)CC2)cc1)c1ccc(-n2cnnc2)cc1 [Compound 29],776
6,Cc1nc(-c2ccc(C(=O)Nc3ccc(N4CCN(C(=O)Nc5c(Cl)cccc5Cl)CC4)cc3)cc2)no1 [Compound 30],4.47
7,Cc1nnnn1-c1cccc(C(=O)Nc2ccc(N3CCN(C(=O)Nc4c(Cl)cccc4Cl)CC3)cc2)c1 [Compound 31],269
8,O=C(Nc1ccc(N2CCN(C(=O)Nc3c(Cl)cccc3Cl)CC2)cc1)c1ccccc1-c1nnn[nH]1 [Compound 32],3310
9,O=C(Nc1ccc(N2CCN(C(=O)Nc3c(Cl)cccc3Cl)CC2)cc1)c1ccc(-c2nnn[nH]2)cc1 [Compound 33],1950
10,O=C(Nc1ccc(N2CCN(C(=O)Nc3c(Cl)cccc3Cl)CC2)cc1)c1ccccc1-c1ccccc1 [Compound 34],20.4
11,CC(C)(C)c1ccc(-c2ccccc2C(=O)Nc2ccc(N3CCN(C(=O)Nc4c(Cl)cccc4Cl)CC3)cc2)cc1 [Compound 35],117
12,Cc1ccccc1-c1cccc(C(=O)Nc2ccc(N3CCN(C(=O)Nc4c(Cl)cccc4Cl)CC3)cc2)c1 [Compound 36],1.74
13,O=C(Nc1ccc(N2CCN(C(=O)Nc3c(Cl)cccc3Cl)CC2)cc1)c1cccc(N2CCCCC2)c1 [Compound 37],1.74
14,O=C(Nc1ccc(N2CCN(C(=O)Nc3c(Cl)cccc3Cl)CC2)cc1)c1ccc(N2CCOCC2)cc1 [Compound 38],11
15,O=C(Nc1ccc(N2CCN(C(=O)Nc3c(Cl)cccc3Cl)CC2)cc1)c1ccccc1N1CCOCC1 [Compound 39],380
16,O=C(Nc1ccc(N2CCN(C(=O)Nc3c(Cl)cccc3Cl)CC2)cc1)c1cccc(N2CCOCC2)c1 [Compound 40],6.61
17,O=C(Nc1ccc(N2CCN(C(=O)Nc3c(Cl)cccc3Cl)CC2)cc1)c1cccc(N2CCCCS2(=O)=O)c1 [Compound 41],19.1
18,O=C(Nc1ccc(N2CCN(C(=O)Nc3c(Cl)cccc3Cl)CC2)cc1)c1ccccc1N1CCS(=O)(=O)CC1 [Compound 42],1170
19,O=C(Nc1ccc(N2CCN(C(=O)Nc3c(Cl)cccc3Cl)CC2)cc1)c1cccc(N2CCS(=O)(=O)CC2)c1 [Compound 43],437
20,CN1CCN(c2ccc(C(=O)Nc3ccc(N4CCN(C(=O)Nc5c(Cl)cccc5Cl)CC4)cc3)cc2)CC1 [Compound 44],100
21,O=C(Nc1ccc(N2CCN(C(=O)Nc3c(Cl)cccc3Cl)CC2)cc1)c1ccccc1-c1nc2ccccc2[nH]1 [Compound 45],56.2
